Data on 3 compounds can be found in US6713260B2, “Methods of identifying compounds that bind to target species under isothermal denaturing conditions” (Pharmacia & Upjohn Company, priority 1999, dated 2004).

The structures appear in SMILES notation.

In one test the target is T1, uridylate kinase (UK) (Staphylococcus aureus, UniProt Q2FZ22).
T1 construct: 6-his tag (implied by Ni-NTA purification); made in house
T1 sequence (Q2FZ22 1-240): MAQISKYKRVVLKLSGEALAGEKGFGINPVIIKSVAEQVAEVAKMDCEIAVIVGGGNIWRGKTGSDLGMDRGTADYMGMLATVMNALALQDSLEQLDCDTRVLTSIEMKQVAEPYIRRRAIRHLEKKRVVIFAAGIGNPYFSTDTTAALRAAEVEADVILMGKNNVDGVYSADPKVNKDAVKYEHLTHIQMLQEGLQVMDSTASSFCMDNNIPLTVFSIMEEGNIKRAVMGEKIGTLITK
Briefly: Uridylate kinase activity assay at 25° C. In kind it is biochemical, S. aureus. The note with it: read-out: apparent Kd obtained from an activity assay.

The target of test [1] is T2, S. aureus uridylate kinase (UK) (Staphylococcus aureus, UniProt Q2FZ22).
T2 sequence (Q2FZ22 1-240): T1 sequence (Q2FZ22 1-240)
Put plainly: Robotic HTS isothermal denaturation assay, uridylate kinase, Nano Orange.
From the text: Temperature was controlled with a circulating waterbath.
Validation of Robotic HTS Assay.

The target of test [2] is T3, Stromelysin (Homo sapiens, UniProt P08254).
T3 construct: made in house
Briefly: Isothermal denaturation of stromelysin monitored by UV absorbance (hyperchromicity at 280 nm). Type of test: binding. To be noted: 75° C.; absorbance at 280 nm. How it is done:
Sci., 7; 2118-2126 (1998).
UV absorbance was measured using a Perkin-Elmer Lambda 40 UV-Vis dual-beam spectrophotometer (Perkin-Elmer Corp. Norwalk, Conn.). A capped 1.0 cm pathlength quartz cuvette filled with buffer was placed in the reference beam. In the sample beam, a capped 1.0 cm path length quartz cuvette containing 1.5 mL of degassed buffer or buffer plus ligand—less the volume of protein solution to be added—was placed in a thermostated cell holder and equilibrated at the temperature of isothermal denaturation. The temperature was maintained within 0.1° C. using a Neslab Exacal EX200 circulating water bath (Neslab Instruments, Inc. Portsmouth, N.H.). A 1-5 μL aliquot of the protein stock solution was added to the cuvette containing buffer or buffer plus ligand to yield a final volume of 1.5 mL and protein concentration near 0.5 μM. The cuvette was recapped and absorbance at 280 nm was measured every 1 second for up to 30 minutes with a bandwidth of 2 nm and response of 0.5 second. For each protein, the effects of several ligand concentrations were examined ranging from about 0.5 μM to about 400 μM. Cuvettes were thoroughly cleaned as described above with nitric acid and with 10% methanol and rinsed with distilled water and ethanol between experiments.
Absorbance. […]

Test [3] addresses T3, Stromelysin. Put plainly: Isothermal denaturation of stromelysin monitored by SYPRO Orange fluorescence. Type of test: binding. To be noted: 75° C.
Method: Time-Dependency of the isothermal denaturation of Stromelysin monitored by SYPRO Orange Fluorescence. […] The data for the control reaction were analyzed using Equation 4, and those for the inhibited reactions with Equation 11. […] The solid lines represent the theoretical fits to the experimental data points.
The time-dependencies of the fluorescence of extrinsic dyes during isothermal denaturation were monitored as follows. The test dye was added to a stirred cuvette containing 2 milliliters (mL) of buffer that had been thermally preequilibrated at the desired temperature. A dye baseline was recorded for 45 seconds and the denaturation reaction initiated by the addition of a small aliquot of the protein stock solution. In this way, the protein reached the temperature of denaturation virtually instantaneously. In separate experiments, the protein was kept at the denaturation temperature in the absence of dye and the reporter molecule added at the end of the reaction. In the latter experiments, the fluorescence increase associated with the addition of dye was always instantaneous.
Two parameters derived from the fluorescence kinetic curves measure the rate of denaturation, namely, the slope at the inflection point, and the first-order rate constant.
Test [4] has as its target T4, S. aureus thymidylate kinase (TK) (Staphylococcus aureus, UniProt P65248).
T4 construct: 6-his tag; made in house
Briefly: biochemical. Type of test: binding.

T3 sequence (P08254 100-264 limits assumed): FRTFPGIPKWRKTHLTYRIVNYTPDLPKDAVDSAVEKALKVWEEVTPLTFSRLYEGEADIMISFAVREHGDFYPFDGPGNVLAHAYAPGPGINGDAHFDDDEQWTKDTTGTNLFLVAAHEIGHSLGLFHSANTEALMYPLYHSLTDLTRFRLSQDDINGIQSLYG
T4 sequence (P65248 whole entry): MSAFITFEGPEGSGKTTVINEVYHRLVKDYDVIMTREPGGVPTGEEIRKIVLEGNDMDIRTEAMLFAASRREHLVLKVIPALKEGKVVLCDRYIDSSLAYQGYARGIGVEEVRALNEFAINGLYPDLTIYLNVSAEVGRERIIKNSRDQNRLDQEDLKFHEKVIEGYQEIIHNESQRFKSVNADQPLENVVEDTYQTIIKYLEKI

On to `O=c1ccn([C@@H]2O[C@H](COP(=O)(O)O)[C@@H](O)[C@H]2O)c(=O)[nH]1` [UMP, uridine monophosphate], for which the Kd on uridylate kinase (UK) worked out at 1 mM; in test [1], 5.76 ± 0.95 mM. For the same compound, the effect on denaturation result in test [1] (41° C., 96-well microplate, robotic) is on record as “concentration-dependent”.
Take `CNC(=O)[C@H](Cc1ccc(O)cc1)NC(=O)Nc1n[nH]c(=S)s1` [PNU-143988]: the “effect on hyperchromicity changes” value on Stromelysin [2] is “dose-dependent inhibition of both the rate and magnitude”. Besides, the “effect on denaturation of stromelysin” value at Stromelysin [3] is on record as “inhibited in a dose-dependent manner”.
Take `Cc1cn([C@H]2C[C@H](O)[C@@H](COP(=O)(O)O)O2)c(=O)[nH]c1=O` [TMP, Thymidine monophosphate]: the Kd in test [4] (Kd calculated from the rate constants) was 7.6 ± 0.8 mM; in test [4] (Kd calculated from the slopes), 9.1 ± 1.6 mM.
